Assay results from patent US20190374506A1, “COMPOSITIONS AND METHODS FOR TREATING CANCER” (BETH ISREAL DEACONESS MEDICAL CENTER, priority 2016, published 2019).

Assays:
Type in all cases: cell-based, human
[1] = tested on: WWP1/NEDD4-1 E3 mediated PTEN K27-linked poly-ubiquitination; assay: In vivo ubiquitination assay (Ni-NTA pull down, western blot) in DU145 cells; conditions: 10 μM or 20 μM I3C for 4 Days
Experimental: DU145 cells expressing indicated plasmids were treated with 10 μM or 20 μM of I3C for 4 Days. The ubiquitinated PTEN was pulled down under denaturing conditions by Ni-NTA agarose and analysed by the western blot. Whether targeting WWP1/NEDD4-1, thereby enhancing PTEN dimerization and function, could offer a unique opportunity to treat MYC-driven cancers was investigated. […] As there is no small pharmacological inhibitor currently available to suppress/inhibit WWP1 activity, Indole-3-Carbinol (I3C), a potential WWP1 inhibitor, which suppresses the WWP1 activity through binding to its HECT domain, was used. First, to assess the on-target effects of I3C towards WWP1, Wwp1^−/− MEFs were used. […] Additionally, two independent PTEN stably knocked-down cells were generated. […] To analyse in vivo ubiquitination of PTEN, cells were transfected with various constructs, together with His-Ubiquitin and Myc-PTEN. Cells were lysed by buffer A (6 M guanidine-HCl, Na2HPO4/NaH2PO4 [pH 8.0], and 10 mM imidazole), and lysates were incubated with Ni-NTA agarose for 1.5 hours at 4° C. The beads were washed once with buffer A, twice with buffer ANTI (1 vol buffer A: 3 vol buffer TI [25 mM Tris-HCl, pH 6.8, and 20 mM imidazole]), and three times with buffer TI, and then analysed by western blot. In all experiments, an equal amount of His-Ubiquitin expression was verified by western blot analysis.

[2] = tested on: DU145 cells stably expressing MYC or vector control; assay: Growth curves, MTT assay, DU145 cells stably expressing MYC or vector control
[3] = tested on: PTEN/AKT pathway in PC3 cells (PTEN-null); assay: Western blot analysis of PTEN/AKT pathway in PC3 cells; conditions: different doses of I3C for 3 Days
Experimental: FIG. 11B provides an analysis of effects of I3C on PTEN/AKT pathway in DU145 or PC3 cells by western blot analysis. Cells were treated with different doses of I3C for 3 Days, and followed by western blot analysis. Whether targeting WWP1/NEDD4-1, thereby enhancing PTEN dimerization and function, could offer a unique opportunity to treat MYC-driven cancers was investigated. […] As there is no small pharmacological inhibitor currently available to suppress/inhibit WWP1 activity, Indole-3-Carbinol (I3C), a potential WWP1 inhibitor, which suppresses the WWP1 activity through binding to its HECT domain, was used. First, to assess the on-target effects of I3C towards WWP1, Wwp1^−/− MEFs were used. […] Additionally, two independent PTEN stably knocked-down cells were generated. […] Western Blotting and Immunoprecipitation. For western blotting, cells were lysed in RIPA buffer (Boston BioProducts) supplemented with protease (Roche) and phosphatase (Roche) inhibitor. Proteins were separated on NuPAGE 4-12% Bis-Tris gradient gels (Invitrogen), transferred to polyvinylidine difluoride membranes (Immobilon P, Millipore) and the blots were probed with the indicated antibodies. For immunoprecipitation, PC3, 293T and MEF cells were transfected with the indicated expression vectors by using LIPOFECTAMIN 2000 (Life Technologies). […]

OCc1c[nH]c2ccccc12 [I3C, indole-3-carbinol]
PTEN K27-linked poly-ubiquitination [1]: robustly diminished | cell growth upon overexpression of MYC ([2]; MYC-overexpressing DU145 cells, same low dose of I3C): became sensitized | cell growth of control cells ([2]; vector control DU145 cells, low dose of I3C): little effect on the cell growth | effects on AKT suppression and apoptosis [3]: only negligible effects
